The record followed here is patent publication US9108957B2 (MITSUBISHI TANABE PHARMA CORPORATION, priority 2009, dated 2015).

This test deals with human recombinant TPK1 (Homo sapiens, UniProt P49841). The experiment in a line: Inhibitory activity against P-GS1 phosphorylation by TPK1 (Kinase Glo luminescence). The format is biochemical. As to conditions: 7.5 μM P-GS1, 10 μM ATP, 25° C. for 16 hours, Kinase Glo Reagent luminescent signal. In outline: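 Human recombinant TPK1 phosphorylated 7.5 μM P-GS1 with 10 μM ATP in 100 mM HEPES-NaOH pH 7.2 with Mg, EGTA, DTT, Tween 20 and 1% DMSO final, for 16 h at 25° C. Remaining ATP was read by Kinase Glo luminescence. IC50 was normalised to no-enzyme (0%) and no-compound (100%) controls.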
Chain of human recombinant TPK1 (P49841 whole entry): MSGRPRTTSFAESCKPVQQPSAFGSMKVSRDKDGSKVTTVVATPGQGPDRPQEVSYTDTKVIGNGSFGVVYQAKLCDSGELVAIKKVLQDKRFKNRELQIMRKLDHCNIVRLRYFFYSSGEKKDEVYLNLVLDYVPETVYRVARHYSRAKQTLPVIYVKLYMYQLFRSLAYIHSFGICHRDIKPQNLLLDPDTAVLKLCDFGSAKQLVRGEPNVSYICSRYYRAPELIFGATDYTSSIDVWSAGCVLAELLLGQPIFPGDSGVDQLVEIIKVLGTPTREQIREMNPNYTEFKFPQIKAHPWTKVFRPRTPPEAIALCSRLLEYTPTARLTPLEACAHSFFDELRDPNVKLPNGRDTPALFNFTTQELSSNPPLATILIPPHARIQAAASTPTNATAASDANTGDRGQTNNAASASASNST
In general terms: In Kinase-Glo more light means more ATP remaining.
Turning to `Cn1c(N2CCCO[C@@H](c3cccc(C(N)=O)c3)C2)nc(-c2ccncn2)cc1=O` [Compound A015, (S)-2-[2-(3-aminocarbonylphenyl)-1,4-oxazepan-4-yl]-3-methyl-6-(pyrimidin-4-yl)pyrimidin-4(3H)-one], the IC50 is 9.3 nM.

As for `Cn1c(N2CCCO[C@@H](c3cccc(C#N)c3)C2)nc(-c2ccncc2)cc1=O` [Compound A046, (S)-2-[2-(3-cyanophenyl)-1,4-oxazepan-4-yl]-3-methyl-6-(pyridin-4-yl)pyrimidin-4(3H)-one], the IC50 was determined as 61.5 nM.

`Cc1noc(-c2ccc([C@@H]3CN(c4nc(-c5ccncc5F)cc(=O)n4C)CCCO3)cc2)n1` [Compound A053, (R)-2-[2-[4-(3-methyl-1,2,4-oxadiazol-5-yl)-phenyl]-1,4-oxazepan-4-yl]-6-(3-fluoropyridin-4-yl)-3-methylpyrimidin-4(3H)-one]: the IC50 is 100 nM.

As to `Cn1c(N2CCCO[C@@H](c3ccc(F)cc3)C2)nc(-c2ccncn2)cc1=O` [Compound A092, (S)-2-[2-(4-fluorophenyl)-1,4-oxazepan-4-yl]-3-methyl-6-(pyrimidin-4-yl)pyrimidin-4(3H)-one], the IC50 was 8.3 nM.

In the case of `Cn1c(N2CCCO[C@@H](c3ccc(C#N)cc3)C2)nc(-c2ccncc2F)cc1=O` [Compound A013, (S)-2-[2-(4-cyanophenyl)-1,4-oxazepan-4-yl]-6-(3-fluoropyridin-4-yl)-3-methylpyrimidin-4(3H)-one], the IC50 turned out to be 7.3 nM.

For `Cn1c(N2CCCO[C@H](c3cccc(C(N)=O)c3)C2)nc(-c2ccncc2F)cc1=O` [Compound A029], the IC50 was determined as 18.8 nM.

With `Cc1nc(-c2cccc([C@@H]3CN(c4nc(-c5ccncc5F)cc(=O)n4C)CCCO3)c2)no1` [Compound A055], the IC50 was determined as 164 nM.

With `Cc1noc(-c2cccc([C@H]3CN(c4nc(-c5ccncc5)cc(=O)n4C)CCCO3)c2)n1` [Compound A056, (S)-2-[2-[3-(3-methyl-1,2,4-oxadiazol-5-yl)-phenyl]-1,4-oxazepan-4-yl]-3-methyl-6-(pyridin-4-yl)pyrimidin-4(3H)-one], the IC50 was 169 nM.

Consider `Cc1nc(-c2ccc(C3CCN(c4nc(-c5ccncc5F)cc(=O)n4C)CCO3)cc2)no1` (single isomer, unassigned; (+)) [Compound A091, (+)-2-[7-[4-(5-methyl-1,2,4-oxadiazol-3-yl)-phenyl]-1,4-oxazepan-4-yl]-6-(3-fluoropyridin-4-yl)-3-methylpyrimidin-4(3H)-one], for which the IC50 was found to be 6.8 nM.

With `Cn1c(N2CCCO[C@H](c3cccc(C(N)=O)c3)C2)nc(-c2ccncc2)cc1=O` [Compound A048, (R)-2-[2-(3-aminocarbonylphenyl)-1,4-oxazepan-4-yl]-3-methyl-6-(pyridin-4-yl)pyrimidin-4(3H)-one], the IC50 is 68.8 nM.

Regarding `Cn1c(N2CCCO[C@@H](c3cccc(C#N)c3)C2)nc(-c2ccncc2F)cc1=O` [Compound A020], the IC50 stood at 11.4 nM.

For `Cn1c(N2CCCO[C@@H](c3ccc(C(N)=O)cc3)C2)nc(-c2ccncc2F)cc1=O` [Compound A007, (S)-2-[2-(4-aminocarbonylphenyl)-1,4-oxazepan-4-yl]-6-(3-fluoropyridin-4-yl)-3-methylpyrimidin-4(3H)-one], the IC50 was determined as 3.5 nM.

As for `Cn1c(N2CCOC(c3cccc(F)c3)CC2)nc(-c2ccncn2)cc1=O` (stereo not shown) [Compound A106, 2-[7-(3-fluorophenyl)-1,4-oxazepan-4-yl]-3-methyl-6-(pyrimidin-4-yl)pyrimidin-4(3H)-one], the IC50 was determined as 20.5 nM.

On to `Cn1c(N2CCCO[C@H](c3ccc(C(N)=O)cc3)C2)nc(-c2ccncn2)cc1=O` [Compound A060, (R)-2-[2-(4-aminocarbonylphenyl)-1,4-oxazepan-4-yl]-3-methyl-6-(pyrimidin-4-yl)pyrimidin-4(3H)-one], for which the concentration for half-maximal inhibition (IC50) is 252 nM.

As for `Cn1c(N2CCCO[C@@H](c3ccc(Br)cc3)C2)nc(-c2ccncc2F)cc1=O` [Compound A010, (S)-2-[2-(4-bromophenyl)-1,4-oxazepan-4-yl]-6-(3-fluoropyridin-4-yl)-3-methylpyrimidin-4(3H)-one], the IC50 was 5.5 nM.

Turning to `Cn1c(N2CCCOC(c3ccccc3)C2)nc(-c2ccncc2)cc1=O` (stereo not shown) [Compound A040, 2-(2-phenyl-1,4-oxazepan-4-yl)-3-methyl-6-(pyridin-4-yl)pyrimidin-4(3H)-one], the IC50 came to 32.7 nM.

With `Cc1noc(-c2ccc(C3COCCN(c4nc(-c5ccncc5F)cc(=O)n4C)C3)cc2)n1` (stereo not shown) [Compound A077, 2-[6-[4-(3-methyl-1,2,4-oxadiazol-5-yl)-phenyl]-1,4-oxazepan-4-yl]-6-(3-fluoropyridin-4-yl)-3-methylpyrimidin-4(3H)-one], the IC50 was determined as 5.9 nM.

As for `COc1ccc(C2CCN(c3nc(-c4ccncn4)cc(=O)n3C)CCO2)cc1` (stereo not shown) [Compound A117, 2-(7-(4-methoxyphenyl)-1,4-oxazepan-4-yl)-3-methyl-6-(pyrimidin-4-yl)pyrimidin-4(3H)-one], the IC50 turned out to be 54.7 nM.

`COc1cccc(C2CCN(c3nc(-c4ccncn4)cc(=O)n3C)CCO2)c1` (stereo not shown) [Compound A101, 2-[7-(3-methoxyphenyl)-1,4-oxazepan-4-yl]-3-methyl-6-(pyrimidin-4-yl)pyrimidin-4(3H)-one]: the IC50 is 15.3 nM.

Take `Cn1c(N2CCOCCC2c2ccccc2)nc(-c2ccncn2)cc1=O` (stereo not shown) [Compound A071, 3-methyl-2-(5-phenyl-1,4-oxazepan-4-yl)-6-(pyrimidin-4-yl)pyrimidin-4(3H)-one]: the IC50 was found to be 41 nM.

Consider `Cn1c(N2CCCO[C@@H](c3cccc(C(N)=O)c3)C2)nc(-c2ccncc2F)cc1=O` [Compound A012], for which the IC50 amounted to 6.7 nM.

As for `Cn1c(N2CCCO[C@@H](c3ccc(F)cc3)C2)nc(-c2ccncc2)cc1=O` [Compound A022, (S)-2-[2-(4-fluorophenyl)-1,4-oxazepan-4-yl]-3-methyl-6-(pyridin-4-yl)pyrimidin-4(3H)-one], the IC50 amounted to 12.5 nM.

For `COc1ccccc1C1CCN(c2nc(-c3ccncc3F)cc(=O)n2C)CCO1` (stereo not shown) [Compound A094, 2-[7-(2-methoxyphenyl)-1,4-oxazepan-4-yl]-6-(3-fluoropyridin-4-yl)-3-methylpyrimidin-4(3H)-one], the IC50 worked out at 10.3 nM.

For the compound `Cn1c(N2CCOC(c3ccc(Br)cc3)CC2)nc(-c2ccncn2)cc1=O` (single isomer, unassigned; (-)) [Compound A122, (−)-2-(7-(4-bromophenyl)-1,4-oxazepan-4-yl)-3-methyl-6-(pyrimidin-4-yl)pyrimidin-4(3H)-one], the IC50 was 114 nM.

With `CC1CCOCCN1c1nc(-c2ccncn2)cc(=O)n1C` (stereo not shown) [Compound A070, 3-methyl-2-(5-methyl-1,4-oxazepan-4-yl)-6-(pyrimidin-4-yl)pyrimidin-4(3H)-one], the IC50 came to 17.3 nM.

As for `Cn1c(N2CCOC(c3ccc(Br)cc3)CC2)nc(-c2ccncc2)cc1=O` (single isomer, unassigned; (+)) [Compound A119, (+)-2-[7-(4-bromophenyl)-1,4-oxazepan-4-yl]-3-methyl-6-(pyridin-4-yl)pyrimidin-4(3H)-one], the IC50 was determined as 72.2 nM.

In the case of `Cn1c(N2CCCO[C@@H](c3cccc(Br)c3)C2)nc(-c2ccncn2)cc1=O` [Compound A079, (S)-2-[2-(3-bromophenyl)-1,4-oxazepan-4-yl]-3-methyl-6-(pyrimidin-4-yl)pyrimidin-4(3H)-one], the IC50 worked out at 7.3 nM.

For `COc1ccccc1C1CCN(c2nc(-c3ccncc3)cc(=O)n2C)CCO1` (stereo not shown) [Compound A115, 2-(7-(2-methoxyphenyl)-1,4-oxazepan-4-yl)-3-methyl-6-(pyridin-4-yl)pyrimidin-4(3H)-one], the IC50 is 47.6 nM.

As a reminder, the IC50 is the midpoint of a concentration-inhibition curve.
